Test results as given in patent publication US9439426B2, “Active compound combinations comprising carboxamide derivatives and a biological control agent” (BAYER CROPSCIENCE AG, priority 2012, dated 2016).

Assays:
[1] = tested on: Puccinia triticina; experiment: Puccinia triticina-test (wheat)/preventive; assay type: in vivo; conditions: preventive, 30 ppm a.i., evaluated 8 days after inoculation
Description: (§1) The commercially available compounds SERENADE-MAX®, SONATA®, active compounds (1 part by weight) solved in N,N-dimethylacetamide (49 parts by weight) and alkylaryl polyglycol ether (1 part by weight), or combinations thereof were diluted with water to the desired concentration.
(§2) To test for preventive activity, young plants are sprayed with the preparation of active compound or active compound combination at the stated rate of application.
After the spray coating has been dried, the plants are sprayed with a spore suspension of Puccinia triticina. The plants remain for 48 hours in an incubation cabinet at approximately 20° C. and a relative atmospheric humidity of approximately 100%.
(§3) The plants are placed in the greenhouse at a temperature of approximately 20° C. and a relative atmospheric humidity of approximately 80%.
(§4) The test is evaluated 8 days after the inoculation. 0% means an efficacy which corresponds to that of the untreated control, while an efficacy of 100% means that no disease is observed.

[2] = tested on: Septoria tritici; experiment: Septoria tritici-test (wheat)/preventive; assay type: in vivo; conditions: preventive, 30 ppm a.i., evaluated 21 days after inoculation
Description: as §1, §2
After the spray coating has been dried, the plants are sprayed with a spore suspension of Septoria tritici. The plants remain for 48 hours in an incubation cabinet at approximately 20° C. and a relative atmospheric humidity of approximately 100% and afterwards for 60 hours at approximately 15° C. in a translucent incubation cabinet at a relative atmospheric humidity of approximately 100%.
The plants are placed in the greenhouse at a temperature of approximately 15° C. and a relative atmospheric humidity of approximately 80%.
The test is evaluated 21 days after the inoculation. 0% means an efficacy which corresponds to that of the untreated control, while an efficacy of 100% means that no disease is observed.

[3] = tested on: Pyrenophora teres; experiment: Pyrenophora teres-test (barley)/preventive; assay type: in vivo; conditions: preventive, 30 ppm a.i., evaluated 8 days after inoculation
Description: as §1, §2
After the spray coating has been dried, the plants are sprayed with a spore suspension of Pyrenophora teres. The plants remain for 48 hours in an incubation cabinet at approximately 20° C. and a relative atmospheric humidity of approximately 100%.
as §3, §4

[4] = log P by HPLC on reversed-phase column (C 18), EEC Directive 79/831 Annex V.A8; assay type: physicochemical; conditions: reversed-phase HPLC column (C 18), 40° C., 0.1% aqueous formic acid and acetonitrile
Description: In table 1, the log P values were determined in accordance with EEC Directive 79/831 Annex V.A8 by HPLC (High Performance Liquid Chromatography) on a reversed-phase column (C 18), using the method described below:
Temperature: 40° C.; Mobile phases: 0.1% aqueous formic acid and acetonitrile; linear gradient from 10% acetonitrile to 90% acetonitrile.
Calibration was carried out using unbranched alkan-2-ones (comprising 3 to 16 carbon atoms) with known log P values (determination of the log P values by the retention times using linear interpolation between two successive alkanones). lambda-max-values were determined using UV-spectra from 200 nm to 400 nm and the peak values of the chromatographic signals.

SMILES	Efficacy in % found [1]	Efficacy in % found [2]	Efficacy in % found [3]	chromatographic logP [4]
CC(C)c1ccc(Cl)cc1CN(C(=O)c1c(C(F)F)nn(C)c1F)C1CC1 [A5, N-(5-chloro-2-isopropylbenzyl)-N-cyclopropyl-3-(difluoromethyl)-5-fluoro-1-methyl-1H-pyrazole-4-carboxamide]	67%	60%	78%	–
CC(C)c1ccccc1CN(C(=S)c1c(C(F)F)nn(C)c1F)C1CC1 [A20, N-cyclopropyl-3-(difluoromethyl)-5-fluoro-N-(2-isopropylbenzyl)-1-methyl-1H-pyrazole-4-carbothioamide]	–	–	–	4.36
